Data: patent publication US4272437A, “Antibacterial agents, and 4-thio azetidinone intermediates” (priority 1979, dated 1981)
≈ marks a conversion by molar mass, not a printed value. Where “and” joins values, the source holds several entries; their conditions need not be identical. Equal entries are not always repeated. Where two headings read alike, the source gives them in different places.

Assays:
[1] = stability in aqueous solution followed by UV; assay type: physicochemical; set-up: unit not given here; conditions: UV, aqueous solution
Protocol: To a solution of penem 3 (2.4 g, 6.89 mmoles) in tetrahydrofuran-ether-water mixture (1:1:1, 165 ml) was added 30% palladium on diatomaceous earth (4.8 g). The reaction mixture was hydrogenated under 45 p.s.i. at 23° C. for 2.5 h and filtered over celite pad. The filtrate and washings were combined, washed twice with ether, centrifugated and filtered several times to give a clear solution which was lyophilized; 0.622 g, 45%. The crystallization of the compound was induced by the addition of water (0.8 ml); the suspension was centrifuged and the water was removed leaving an orange solid. This solid was washed twice with water and a slightly yellow solid was obtained after drying: […], 19.8%. UV λmax^H.sbsp.2^O : 307 (ε=4318) and 257 (ε=2650). Some crude starting material (1.2 g, 50%) was recovered. The compound (50 mg) can also be purified by column chromatography [Sephadex G10, column size: 1.6×100 cm, flow rate: 10 ml/h, eluent: distilled water, fraction volume: 1.5 ml, detector: refractive index]. UV λmax^H.sbsp.2^O 307 (ε=3597) and 255 (ε=2424).
The stability of the compound in aqueous solution was checked by:
A sample of compound 4 was kept at 23° C. for 3 days and the UV was taken: UV λmax^H.sbsp.2^O : 307 (ε=3055) and 255 (ε=2008).
To a solution of ester 6 (200 mg, 0.5 mmole) in tetrahydrofuran (10 ml) was added ether (10 ml), water (10 ml) and 30% palladium on diatomaceous earth (200 mg). The reaction mixture was hydrogenated in a Parr apparatus under 35 p.s.i. at 25° C. for 2 h 30 min and filtered over a celite pad. The filtrate was washed twice with ether and the aqueous solution was lyophilized, giving a yellow powder which was purified by column chromatography [Sephadex G-10, bed dimensions: 100×1.6 cm, flow rate: 12 ml/h, eluent: distilled water, fraction volume: 1.5 ml detector: refractive index]. The right fractions were combined and lyophilized to give a white powder (10 mg, 8.8%). UV λmax^H.sbsp.2 O 301 (ε=4930), 258 (ε=3290). IR (KBr) cm^-1 :1770 (c=o of β-lactam) and 1580 [drawing 587] The stability of compound 7 in aqueous solution was followed by UV; after 6 h: 301 (4795) and 258 (3105) and after 72 h: 301 (4565) and 258 (3150). […]

[2] = test system: Str. pneumoniae A-9585; test: MIC, tube dilution, Streptococcus pneumoniae A9585; assay type: cell-based; conditions: overnight 37° C., Nutrient Broth
Source text: (§1) Representative compounds of the present invention were subjected to in vitro antibiotic screening against a variety of microorganisms.

[3] = test system: Str. pyogenes A-9604; test: MIC, tube dilution, Streptococcus pyogenes A9604; assay type: cell-based; conditions: overnight 37° C., Nutrient Broth
Source text: as §1

[4] = test system: Staph. aureus A-9537; test: MIC, tube dilution, Staphylococcus aureus A9537; assay type: cell-based; conditions: overnight 37° C., Nutrient Broth
Source text: as §1

[5] = test system: Staph. aureus A-9537 and 50% serum; test: MIC, tube dilution, Staph. aureus A9537 + 50% serum; assay type: cell-based, Staphylococcus aureus; conditions: overnight 37° C.
Source text: as §1

[6] = test system: Staph. aureus (Pen-Res) A-9606; test: MIC, tube dilution, Staphylococcus aureus A9606 (Pen-Res); assay type: cell-based; conditions: overnight 37° C.
Source text: as §1

[7] = test system: Staph. aureus (Meth-Res) A-15097; test: MIC, tube dilution, Staphylococcus aureus A15097 (Meth-Res); assay type: cell-based; conditions: overnight 37° C.; for MIC: Staphylococcus aureus
Source text: as §1

[8] = test system: Str. faecalis A-20688; test: MIC, tube dilution, Streptococcus faecalis A20688; assay type: cell-based; conditions: overnight 37° C.; for MIC: Enterococcus faecalis, A20688, Str. faecalis A20688, read-out: Minimum Inhibitory Concentration (M.I.C.)
Source text: as §1

[9] = test system: E. coli A-15119; test: MIC, tube dilution, Escherichia coli A15119; assay type: cell-based; conditions: overnight 37° C.
Source text: as §1

[10] = test system: E. coli A-20341-1; test: MIC, tube dilution, Escherichia coli A20341-1; assay type: cell-based
Source text: as §1

[11] = test system: K. pneumoniae A-15130; test: MIC, tube dilution, Klebsiella pneumoniae A15130; assay type: cell-based; conditions: overnight 37° C.
Source text: as §1

[12] = test system: Klebsiella species A20468; test: MIC, tube dilution, Klebsiella species A20468; assay type: cell-based; conditions: Klebsiella species (K. pneumoniae) A20468, overnight 37° C.; for MIC: read-out: Minimum Inhibitory Concentration (M.I.C.)
Source text: as §1

[13] = test system: Pr. mirabilis A-9900; test: MIC, tube dilution, Proteus mirabilis A9900; assay type: cell-based; conditions: overnight 37° C.
Source text: as §1

[14] = test system: Pr. vulgaris A-9716; test: MIC, tube dilution, Proteus vulgaris / Proteus mirabilis A9716; assay type: cell-based, Proteus vulgaris (name changed to Proteus mirabilis); conditions: Proteus vulgaris / Proteus mirabilis A9716; overnight 37° C.
Source text: as §1

[15] = test system: Pr. morganii A-15153; test: MIC, tube dilution, Proteus morganii A15153; assay type: cell-based; conditions: overnight 37° C.
Source text: as §1

[16] = test system: Ser. marcescens A-20019; test: MIC, tube dilution, Serratia marcescens A20019; assay type: cell-based; conditions: overnight 37° C.
Source text: as §1

[17] = test system: Ent. cloacae A-9659; test: MIC, tube dilution, Enterobacter cloacae A9659; assay type: cell-based; conditions: overnight 37° C.
Source text: as §1

[18] = test system: Ent. cloacae A-9656; test: MIC, tube dilution, Enterobacter cloacae A9656; assay type: cell-based; conditions: Enterobacter cloacae A9656, overnight 37° C.
Source text: as §1

[19] = test system: Ps. aeruginosa A-9843A; test: MIC, tube dilution, Pseudomonas aeruginosa A9843A; assay type: cell-based; conditions: overnight 37° C.
Source text: as §1

[20] = test system: Ps. aeruginosa A-21213; test: MIC, tube dilution, Pseudomonas aeruginosa A21213; assay type: cell-based; conditions: overnight 37° C.; for MIC: read-out: Minimum Inhibitory Concentration (M.I.C.)
Source text: as §1

[21] = test system: Proteus rettgeri A21203; test: MIC, tube dilution, Proteus rettgeri A21203; assay type: cell-based; conditions: Proteus rettgeri A21203, overnight 37° C.
Source text: as §1

[22] = test system: Proteus vulgaris A9555; test: MIC, tube dilution, Proteus vulgaris (mirabilis) A9555; assay type: cell-based; conditions: overnight 37° C., read-out: Minimum Inhibitory Concentration (M.I.C.)
Source text: as §1

NCCCC1=C(C(=O)O)N2C(=O)CC2S1 (centres unmarked) [Example 51, 2-(γ-Aminopropyl)penem-3-carboxylic Acid]
ε at 258 in aqueous solution (stability) ([1]; after 6 h): 3105 | ε at 301 in aqueous solution (stability) ([1]; after 6 h): 4795 | ε at 258 in aqueous solution (stability) ([1]; after 72 h): 3150 | ε at 301 in aqueous solution (stability) ([1]; after 72 h): 4565 | Minimum Inhibitory Concentration (M.I.C.) ([2]; Str. pneumoniae A9585): .25 µg/mL | Minimum Inhibitory Concentration (M.I.C.) ([3]; Str. pyogenes A9604): 2 µg/mL and 1 µg/mL | Minimum Inhibitory Concentration (M.I.C.) ([4]; Staph. aureus A9537): 2 µg/mL and 1 µg/mL | Minimum Inhibitory Concentration (M.I.C.) [5]: 63 µg/mL and > 32 µg/mL | Minimum Inhibitory Concentration (M.I.C.) ([6]; Staph. aureus A9606 (Pen-Res)): 63 µg/mL and 32 µg/mL | Minimum Inhibitory Concentration (M.I.C.) ([7]; Staph. aureus A15097 (Meth-Res)): 125 µg/mL | MIC ([7]; Staph. aureus A15097 (Meth-Res), read-out: Minimum Inhibitory Concentration (M.I.C.)): 63 µg/mL (≈ 276 µM) | MIC [8]: 63 µg/mL (≈ 276 µM) | Minimum Inhibitory Concentration (M.I.C.) ([8]; Str. faecalis A20688): 125 µg/mL | Minimum Inhibitory Concentration (M.I.C.) ([9]; E. coli A15119): 16 µg/mL and 8 µg/mL | Minimum Inhibitory Concentration (M.I.C.) ([10]; E. coli A20341-1; overnight 37° C.): 125 µg/mL | MIC ([10]; Escherichia coli, A203411, E. coli A20341-1; overnight 37° C.; read-out: Minimum Inhibitory Concentration (M.I.C.)): > 63 µg/mL | Minimum Inhibitory Concentration (M.I.C.) ([11]; K. pneumoniae A15130): 32 µg/mL | Minimum Inhibitory Concentration (M.I.C.) [12]: > 125 µg/mL | MIC [12]: > 63 µg/mL | Minimum Inhibitory Concentration (M.I.C.) ([13]; Proteus mirabilis A9900): 16 µg/mL and 8 µg/mL | Minimum Inhibitory Concentration (M.I.C.) [14]: 16 µg/mL | Minimum Inhibitory Concentration (M.I.C.) ([15]; Proteus morganii A15153): 32 µg/mL and 16 µg/mL | Minimum Inhibitory Concentration (M.I.C.) ([16]; Serratia marcescens A20019): 32 µg/mL and 16 µg/mL | Minimum Inhibitory Concentration (M.I.C.) ([17]; Enterobacter cloacae A9659): 16 µg/mL | Minimum Inhibitory Concentration (M.I.C.) [18]: 32 µg/mL | Minimum Inhibitory Concentration (M.I.C.) ([19]; Pseudomonas aeruginosa A9843A): 125 µg/mL and 63 µg/mL | Minimum Inhibitory Concentration (M.I.C.) ([20]; Pseudomonas aeruginosa A21213): 125 µg/mL | MIC ([20]; Pseudomonas aeruginosa, A21213, Pseudomonas aeruginosa A21213): 63 µg/mL (≈ 276 µM) | Minimum Inhibitory Concentration (M.I.C.) [21]: 16 µg/mL and 8 µg/mL | MIC [22]: 63 µg/mL (≈ 276 µM)

O=C([O-])C1=C(c2cccnc2)S[C@@H]2CC(=O)N12.[Na+] [Example 53, Sodium 2-(3-Pyridyl)penem-3-carboxylate]
MIC ([2]; Streptococcus pneumoniae, A9585, Str. pneumoniae A9585, read-out: Minimum Inhibitory Concentration (M.I.C.)): 0.06 µg/mL | MIC ([3]; Streptococcus pyogenes, A9604, Str. pyogenes A9604, read-out: Minimum Inhibitory Concentration (M.I.C.)): 0.13 µg/mL | MIC ([4]; Staphylococcus aureus, A9537, Staph. aureus A9537, read-out: Minimum Inhibitory Concentration (M.I.C.)): 1 µg/mL | MIC ([5]; Staphylococcus aureus, read-out: Minimum Inhibitory Concentration (M.I.C.)): > 63 µg/mL | MIC ([6]; Staphylococcus aureus, read-out: Minimum Inhibitory Concentration (M.I.C.), Staph. aureus A9606 (Pen-Res)): 8 µg/mL | MIC ([7]; read-out: Minimum Inhibitory Concentration (M.I.C.), Staph. aureus A15097 (Meth-Res)): 16 µg/mL | MIC [8]: 8 µg/mL | MIC ([9]; Escherichia coli, A15119, E. coli A15119, read-out: Minimum Inhibitory Concentration (M.I.C.)): 2 µg/mL | MIC ([10]; Escherichia coli, A203411; E. coli A20341-1; overnight 37° C.; read-out: Minimum Inhibitory Concentration (M.I.C.)): 63 µg/mL | MIC ([11]; Klebsiella pneumoniae, A15130, K. pneumoniae A15130, read-out: Minimum Inhibitory Concentration (M.I.C.)): 16 µg/mL | MIC [12]: > 125 µg/mL | MIC ([13]; Proteus mirabilis, A9900, Proteus mirabilis A9900, read-out: Minimum Inhibitory Concentration (M.I.C.)): 2 µg/mL | MIC ([15]; Morganella morganii, A15153, Proteus morganii A15153, read-out: Minimum Inhibitory Concentration (M.I.C.)): 8 µg/mL | MIC ([16]; Serratia marcescens, A20019, Serratia marcescens A20019, read-out: Minimum Inhibitory Concentration (M.I.C.)): 8 µg/mL | MIC ([17]; Enterobacter cloacae, A9659, Enterobacter cloacae A9659, read-out: Minimum Inhibitory Concentration (M.I.C.)): 16 µg/mL | MIC ([18]; read-out: Minimum Inhibitory Concentration (M.I.C.)): 32 µg/mL | MIC ([19]; Pseudomonas aeruginosa, A9843A, read-out: Minimum Inhibitory Concentration (M.I.C.), Pseudomonas aeruginosa A9843A): 125 µg/mL | MIC ([20]; Pseudomonas aeruginosa A21213): 125 µg/mL | MIC ([21]; Providencia rettgeri, read-out: Minimum Inhibitory Concentration (M.I.C.)): 2 µg/mL | MIC [22]: 2 µg/mL
